Experimental data published in PMC4689404, “2-Benzazolyl-4-Piperazin-1-Ylsulfonylbenzenecarbohydroxamic Acids as Novel Selective Histone Deacetylase-6 Inhibitors with Antiproliferative Activity” (PLoS ONE, 2015).
Like-named read-outs stand apart in the source and are kept apart here.

Assays:
[1] = molecular target: T1, partially purified HDAC1 from mouse A20 cells (Mus musculus, UniProt O09106); assay: HDAC1 activity assay, partially purified enzyme, [3H]acetate-prelabeled histones; type: biochemical
T1 construct: from mouse A20 cells was used as enzyme source; endogenous in cells; host or cells: mouse A20 cells
T1 sequence (O09106 whole entry): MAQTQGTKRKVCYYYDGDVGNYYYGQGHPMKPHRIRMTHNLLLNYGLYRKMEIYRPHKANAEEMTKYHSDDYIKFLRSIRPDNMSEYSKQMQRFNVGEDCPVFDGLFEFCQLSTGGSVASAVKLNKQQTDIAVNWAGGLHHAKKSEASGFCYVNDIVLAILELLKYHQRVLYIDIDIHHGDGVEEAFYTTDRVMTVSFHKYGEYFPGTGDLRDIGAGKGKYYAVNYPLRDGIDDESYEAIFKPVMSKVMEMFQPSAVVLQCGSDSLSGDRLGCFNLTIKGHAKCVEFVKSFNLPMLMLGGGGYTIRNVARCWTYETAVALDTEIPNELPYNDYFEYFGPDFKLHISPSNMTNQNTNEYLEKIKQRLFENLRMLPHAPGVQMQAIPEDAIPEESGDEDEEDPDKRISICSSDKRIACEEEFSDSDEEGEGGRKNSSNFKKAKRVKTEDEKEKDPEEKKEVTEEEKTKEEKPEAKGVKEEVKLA
Excerpt: For inhibition assays, partially purified HDAC1 (70–80 fold enriched relative to crude samples) from mouse A20 cells was used as enzyme source. HDAC1 activity was purified by a combination of anion exchange chromatography (Mono Q), affinity chromatography (Poly-lysin agarose, Heparin Sepharose) and TSK size exclusion chromatography (Jesacher and Loidl, unpublished). HDAC1 protein was identified by immunoblotting using anti mouse HDAC1 antibodies (collaboration with Zymed Laboratories, Inc., San Francisco, California, USA). HDAC activity was determined as described by Sendra et al., [20] using [^3H]acetate-prelabeled chicken reticulocyte histones as substrate. 50 μL of mouse HDAC1 were incubated with different concentrations of compounds for 10 min on ice and 10 μL of total [^3H] acetate pre-labeled chicken reticulocyte histones (4 mg/mL) were added, resulting in a concentration of 41 μM. This mixture was incubated at 37°C for 1 h. The reaction was stopped by addition of 50 μL of 1 M HCl/0.4 M acetylacetate and 1 mL ethylacetate. After centrifugation at 10000 x g for 5 min an aliquot of 600 μL of the upper phase was counted for radioactivity in 3 mL liquid scintillation cocktail.

[2] = tested on: HCC4017 lung cancer cells; assay: cell cycle analysis (PI, FACS); type: cell-based, human; conditions: for effect on cell cycle distribution: HCC4017, FACs analysis; for subG0 population: HCC4017, even after 64h
Experimental: For cell cycle analysis, cells were washed with PBS, fixed in 70% ethanol for 2 h, washed with PBS and resuspended in staining solution (0.1% Triton X-100, 0.2 mg/ml DNAse-free RNAse A and […]) and incubated at 37C for 15 min. Histograms were acquired on a BD FACSCalibur flow cytometer at UT Southwestern’s core facility. Apoptosis was measured using a FITC Annexin V Apoptosis Detection Kit I (BD Pharmingen) according to manufacturer’s protocol after treating cells with compounds as indicated in Figure legends.

[3] = tested on: Non-Small Cell Lung cancer cell lines; assay: NCI 60 screen, five dose; type: cell-based, human; conditions: NSCL cancer; for GI50: Homo sapiens; for no. cell lines used for the assay/no inhibited by compound: figures in parenthesis
CNS cancer cell lines = assay: NCI 60 screen, five dose; type: cell-based, human; conditions: for GI50: Homo sapiens; for no. cell lines used for the assay/no inhibited by compound: figures in parenthesis
[4] = tested on: Ovarian cancer cell lines; assay: NCI 60 screen, five dose; type: cell-based, human; conditions: for GI50: Homo sapiens; for no. cell lines used for the assay/no inhibited by compound: figures in parenthesis
Renal Cancer cell lines = assay: NCI 60 screen, five dose; type: cell-based, human; conditions: for GI50: Homo sapiens; for no. cell lines used for the assay/no inhibited by compound: figures in parenthesis
Breast cancer cell lines = assay: NCI 60 screen, five dose; type: cell-based, human; conditions: for GI50: Homo sapiens; for no. cell lines used for the assay/no inhibited by compound: figures in parenthesis
HOP-62 = assay: NCI 60 screen, five dose; type: cell-based; conditions: Homo sapiens, Non-Small Cell Lung Cancer, GI50 = molar concentration, read-out: Log10 GI50 (converted)
HOP-92 = assay: NCI 60 screen, five dose; type: cell-based; conditions: Homo sapiens, Non-Small Cell Lung Cancer, GI50 = molar concentration, read-out: Log10 GI50 (converted)
NCI-H226 = assay: NCI 60 screen, five dose; type: cell-based; conditions: Homo sapiens, Non-Small Cell Lung Cancer, GI50 = molar concentration, read-out: Log10 GI50 (converted)
NCI-H322M = assay: NCI 60 screen, five dose; type: cell-based; conditions: Homo sapiens, Non-Small Cell Lung Cancer, GI50 = molar concentration, read-out: Log10 GI50 (converted)
NCI-H460 = assay: NCI 60 screen, five dose; type: cell-based; conditions: Homo sapiens, Non-Small Cell Lung Cancer, GI50 = molar concentration, read-out: Log10 GI50 (converted)
COLO 205 = assay: NCI 60 screen, five dose; type: cell-based; conditions: Homo sapiens, Colon Cancer, GI50 = molar concentration, read-out: Log10 GI50 (converted)
HCT-15 = assay: NCI 60 screen, five dose; type: cell-based; conditions: Homo sapiens, Colon Cancer, GI50 = molar concentration, read-out: Log10 GI50 (converted)
SF-268 = assay: NCI 60 screen, five dose; type: cell-based; conditions: Homo sapiens, CNS Cancer, GI50 = molar concentration, read-out: Log10 GI50 (converted)
SF-539 = assay: NCI 60 screen, five dose; type: cell-based; conditions: Homo sapiens, CNS Cancer, GI50 = molar concentration, read-out: Log10 GI50 (converted)
LOX IMVI = assay: NCI 60 screen, five dose; type: cell-based; conditions: Homo sapiens, Melanoma, GI50 = molar concentration, read-out: Log10 GI50 (converted)
MALME-3M = assay: NCI 60 screen, five dose; type: cell-based; conditions: Homo sapiens, Melanoma, GI50 = molar concentration, read-out: Log10 GI50 (converted)
MDA-MB-435 = assay: NCI 60 screen, five dose; type: cell-based; conditions: Homo sapiens, Melanoma, GI50 = molar concentration, read-out: Log10 GI50 (converted)
SK-MEL-2 = assay: NCI 60 screen, five dose; type: cell-based; conditions: Homo sapiens, Melanoma, GI50 = molar concentration, read-out: Log10 GI50 (converted)
UACC-257 = assay: NCI 60 screen, five dose; type: cell-based; conditions: Homo sapiens, Melanoma, GI50 = molar concentration, read-out: Log10 GI50 (converted)
IGROV1 = assay: NCI 60 screen, five dose; type: cell-based; conditions: Homo sapiens, IGROV-1, Ovarian Cancer, GI50 = molar concentration, read-out: Log10 GI50 (converted)
OVCAR-8 = assay: NCI 60 screen, five dose; type: cell-based; conditions: Homo sapiens, Ovarian Cancer, GI50 = molar concentration, read-out: Log10 GI50 (converted)
NCI/ADR-RES = assay: NCI 60 screen, five dose; type: cell-based; conditions: Homo sapiens, Ovarian Cancer, GI50 = molar concentration, read-out: Log10 GI50 (converted)
SK-OV-3 = assay: NCI 60 screen, five dose; type: cell-based; conditions: Homo sapiens, Ovarian Cancer, GI50 = molar concentration, read-out: Log10 GI50 (converted)
786-0 = assay: NCI 60 screen, five dose; type: cell-based; conditions: Homo sapiens, Renal Cancer, GI50 = molar concentration, read-out: Log10 GI50 (converted)
RXF 393 = assay: NCI 60 screen, five dose; type: cell-based; conditions: Homo sapiens, Renal Cancer, GI50 = molar concentration, read-out: Log10 GI50 (converted)
UO-31 = assay: NCI 60 screen, five dose; type: cell-based; conditions: Homo sapiens, Renal Cancer, GI50 = molar concentration, read-out: Log10 GI50 (converted)
PC-3 = assay: NCI 60 screen, five dose; type: cell-based; conditions: Homo sapiens, Prostate Cancer, GI50 = molar concentration, read-out: Log10 GI50 (converted)
MCF7 = assay: NCI 60 screen, five dose; type: cell-based; conditions: Homo sapiens, Breast Cancer, GI50 = molar concentration, read-out: Log10 GI50 (converted)
MDA-MB-231/ATCC = assay: NCI 60 screen, five dose; type: cell-based; conditions: Homo sapiens, Breast Cancer, GI50 = molar concentration, read-out: Log10 GI50 (converted)
BT-549 = assay: NCI 60 screen, five dose; type: cell-based; conditions: Homo sapiens, Breast Cancer, GI50 = molar concentration, read-out: Log10 GI50 (converted)
T-47D = assay: NCI 60 screen, five dose; type: cell-based; conditions: Homo sapiens, T47D, Breast Cancer, GI50 = molar concentration, read-out: Log10 GI50 (converted)
[5] = Table 3, partially purified HDAC1, read-out: HDAC1 IC50

| SMILES | IC50 [1, 5] | effect on cell cycle distribution [2] | subG0 population [2] | GI50 [3] | no. cell lines used for the assay/no inhibited by compound [3] | GI50 (CNS cancer cell lines) | no. cell lines used for the assay/no inhibited by compound (CNS cancer cell lines) | GI50 [4] | no. cell lines used for the assay/no inhibited by compound [4] | GI50 (Renal Cancer cell lines) | no. cell lines used for the assay/no inhibited by compound (Renal Cancer cell lines) | GI50 (Breast cancer cell lines) | no. cell lines used for the assay/no inhibited by compound (Breast cancer cell lines) | GI50 (HOP-62) | GI50 (HOP-92) | GI50 (NCI-H226) | GI50 (NCI-H322M) | GI50 (NCI-H460) | GI50 (COLO 205) | GI50 (HCT-15) | other results |
| --- | --- | --- | --- | --- | --- | --- | --- | --- | --- | --- | --- | --- | --- | --- | --- | --- | --- | --- | --- | --- | --- |
| Cn1c(N2CCN(S(=O)(=O)c3ccc(C(=O)NO)cc3)CC2)nc2ccccc21 [Compound 9b, 4-[4-(1-methylbenzimidazol-2-yl)piperazin-1-yl]sulfonylbenzenecarbohydroxamic acid] | 12.4 µM | affect cell cycle distribution after just 18h of treatment | no subG0 population was observed |  |  |  |  |  |  |  |  |  |  |  |  |  |  |  |  |  | IC50 ([1]; partially purified HDAC1 from mouse A20 cells, Fig 4 and text, read-out: HDAC1 Inhibit (IC50)): ~12 µM |
| O=C(NO)c1ccc(S(=O)(=O)N2CCN(c3nc4ccccc4o3)CC2)cc1 [Compound 9c, 4-(4-Benzoxazol-2-yl-piperazin-1-sulfonyl)-N -hydroxy-benzamid] | 5.7 µM | affect cell cycle distribution after just 18h of treatment | no subG0 population was observed | 9.51 µM | 3/9 | 5.82 µM | 4/6 | 7.66 µM | 2/5 | 8.24 µM | 3/8 | 8.71 µM | 2/7 | 12 µM | 6.03 µM | 20.9 µM | 14.5 µM | 10.7 µM | 1.7 µM | 18.2 µM | GI50 (SF-268): 12 µM; GI50 (SF-539): 3.72 µM; GI50 (LOX IMVI): 10.7 µM; GI50 (MALME-3M): 1.38 µM; GI50 (MDA-MB-435): 3.63 µM; GI50 (SK-MEL-2): 16.2 µM; GI50 (UACC-257): 6.46 µM; GI50 (IGROV1): 11 µM; GI50 (OVCAR-8): 3.24 µM; GI50 (NCI/ADR-RES): 21.9 µM; GI50 (SK-OV-3): 14.8 µM; GI50 (786-0): 23.4 µM; GI50 (RXF 393): 4.47 µM; GI50 (UO-31): 10.7 µM; GI50 (PC-3): 3.24 µM; GI50 (MCF7): 3.8 µM; GI50 (MDA-MB-231/ATCC): 13.2 µM; GI50 (BT-549): 12 µM; GI50 (T-47D): 5.75 µM |
| O=C(NO)c1ccc(S(=O)(=O)N2CCN(c3nc4ccccc4s3)CC2)cc1 [Compound 9d, 4-(4-Benzothiazol-2-yl-piperazin-1-sulfonyl)-N -hydroxy-benzamid] | 4.8 µM |  |  | 3.77 µM | 4/9 | 2.77 µM | 4/6 | 4.01 µM | 3/3 | 3.94 µM | 3/8 | 3.88 µM | 4/7 | 3.8 µM | 2.57 µM | 10 µM | 5.62 µM | 5.13 µM | 3.02 µM | 3.98 µM | GI50 (SF-268): 3.98 µM; GI50 (SF-539): 2.34 µM; GI50 (LOX IMVI): 2.51 µM; GI50 (MALME-3M): 2.57 µM; GI50 (MDA-MB-435): 1.86 µM; GI50 (SK-MEL-2): 6.31 µM; GI50 (UACC-257): 3.55 µM; GI50 (IGROV1): 3.55 µM; GI50 (OVCAR-8): 1.7 µM; GI50 (NCI/ADR-RES): 6.61 µM; GI50 (SK-OV-3): 7.76 µM; GI50 (786-0): 9.12 µM; GI50 (RXF 393): 2 µM; GI50 (UO-31): 4.37 µM; GI50 (PC-3): 2.04 µM; GI50 (MCF7): 15.8 µM; GI50 (MDA-MB-231/ATCC): 5.01 µM; GI50 (BT-549): 2.4 µM; GI50 (T-47D): 3.89 µM |
